Laboratory results: publication PMC6593967, “The development and prevalidation of an in vitro mutagenicity assay based on MutaMouse primary hepatocytes, Part II: Assay performance for the identification of mutagenic chemicals” (Environmental and Molecular Mutagenesis, 2019)
Where “and” joins values, the source holds several entries; their conditions need not be identical. Identical values can stand only once. Entries after “also recorded” stand apart in the source; their conditions may differ. Like-named read-outs stand apart in the source and are kept apart here.

Experiments:
[1] = tested on: MutaMouse primary hepatocytes (PHs); assay: MutaMouse PH in vitro gene mutation assay (lacZ mutant frequency, P-Gal positive selection); conditions: for Significant MF increase over concurrent vehicle control at any concentration: Bonferroni-corrected contrasts; for Overall treatment effect on MF (Chi-squared test): P < 0.05 significant
[2] = tested on: MutaMouse FE1 lung epithelial cells; conditions: cited from earlier work
[3] = tested on: p53‐functional human cells; conditions: ref NTP, 1982, 1986, Kirkland et al., 2008, Fowler et al., 2012a, 2016; cited from earlier work
[4] = ref NTP, 1982, 1986, Kirkland et al., 2008, Fowler et al., 2012a, 2016; cited from earlier work
[5] = tested on: MutaMouse primary hepatocytes (PHs); assay: Cytotoxicity by relative increase in nuclear counts (RINC), flow cytometry; format: cell-based, mouse
Description: Cytotoxicity was measured using the relative increase in nuclear counts (RINC) metric. […] To normalize nuclei counts, 150 μL of a suspension of 6 μm fluorescently labeled polystyrene microspheres was added to each sample of lysate. […] Each microsphere‐lysate sample was diluted 1:10 prior to flow cytometric analysis. Data were acquired using a BD Biosciences FACScalibur flow cytometer (BD Biosciences, Mississauga, Ontario) equipped with a 488 nm laser. Instrumentation settings and data acquisition were facilitated using CellQuest Pro software (BD Biosciences). Data analysis was performed using Flowing Software version 2.5.1 (Turku Centre for Biotechnology, Turku, Finland). SYTOX® green and bead fluorescence emission were captured in the FL1 channel (530/30 band‐pass filter). Events were scored as nuclei following the application of key criteria (i.e., within a side scatter (SSC) vs forward scatter (FSC) region, within a region that excludes doublets, and within an FSC vs. FL1 region).

[6] = tested on: p53‐deficient hamster cells; conditions: ref NTP, 1982, 1986, Kirkland et al., 2008, Fowler et al., 2012a, 2016; cited from earlier work
[7] = tested on: hematopoietic tissues (e.g., the bone marrow and blood); conditions: cited from earlier work
liver = tested on: liver; parameters: method as in Rompelberg et al., 1996a; Rompelberg et al., 1996b; conditions: ref Rompelberg et al., 1996a, 1996b; cited from earlier work
MutaMouse = conditions: cited from earlier work; for Relative potency in the MutaMouse gene mutation assay in vivo: ref Gocke et al., 2009, Luijten et al., 2016, Hanna, 2018, Long et al.
[8] = tested on: pUR288 lacZ Plasmid Mouse PHs; conditions: cited from earlier work; for Response in pUR288 lacZ Plasmid Mouse PHs gene mutation assay: ref citations provided
tk locus = conditions: S9; PhIP: human TK6 assay; 3-NBA: tk locus in human lymphoblast lines h1A1v2 and MCL-5; ref citations provided; cited from earlier work
[9] = 6 h exposure, 72 h sampling, no exogenous S9
[10] = BMR 100% (twofold MF increase), PROAST covariate analysis
[11] = lower limit of 90% confidence interval of BMD100
[12] = maximum response, concentration not given
[13] = upper limit of 90% confidence interval of BMD100
[14] = ref White et al., 2003, Hanna, 2018
[15] = at or above top concentrations tested

Row | Compound | Response in MutaMouse PH gene mutation assay [1, 9] | BMD100, Exponential model [1, 10] [µg/mL] | BMD100, Hill model [1, 10] [µg/mL] | BMDL, Exponential model [1, 11] [µg/mL] | BMDL, Hill model [1, 11] [µg/mL] | MF fold increase over control in MutaMouse PHs [1, 12] [fold] | Relative mutagenic potency by BMD100 covariate analysis ([1]; ranking of positive chemicals) | BMDU, Exponential model [1, 13] [µg/mL] | BMDU, Hill model [1, 13] [µg/mL] | Response in MutaMouse FE1 gene mutation assay ([2]; S9, ref citations provided) | other results
1 | CN(C)N=O [DMN, dimethylnitrosamine] | positive responses | 7.6 | 7.6 | 3.18 | 3.18 | 14.4 | less potent than 3‐NBA and BaP | 21.5 | 16.8 | – | MF fold-increase over control ([1]; 200 μg/mL, 6 h exposure, 72 h sampling): 14.4 fold
2 | CC(=O)Nc1ccc2c(c1)Cc1ccccc1-2 [2‐AAF, 2‐acetylaminofluorene] | positive responses | 1.9 | 1.9 | 0.964 | 0.964 | 2.6 | less potent than 3‐NBA and BaP | 3.96 | 3.96 | Positive (±S9) | MF fold-increase over control ([1]; 5 μg/mL, 6 h exposure, 72 h sampling): 2.6 fold; MF fold increase in MutaMouse FE1 cells [2, 14]: ~ 1.7 fold
3 | CC(C)(C)c1cc(O)ccc1O [TBHQ, tertiary butylhydroquinone] | Negative | – | – | – | – | – | – | – | – | – | Significant MF increase over concurrent vehicle control at any concentration [1]: Neither TBHQ nor eugenol yielded a significant increase in MF; Result in in vitro micronucleus assay [3]: negative results; Result in in vitro chromosome aberration test [4]: positive; Cytotoxicity (RINC) in words [5]: relatively high RINC obtained at the top concentration; Result for micronucleus [6]: positive; Genotoxicity result in vivo ([7]; in vivo): negative results in vivo
4 | C=CCc1ccc(O)c(OC)c1 [Eugenol] | equivocal | – | – | – | – | – | – | – | – | – | Significant MF increase over concurrent vehicle control at any concentration [1]: absence of a significant response at any concentration tested; also recorded: Neither TBHQ nor eugenol yielded a significant increase in MF; Overall treatment effect on MF (Chi-squared test) [1]: significant result for the overall treatment effect; Overall treatment effect on MF (Chi-squared test) ([1]; listed as eugenol): significant treatment effect; Result in in vitro micronucleus assay [3]: negative results; Result in in vitro chromosome aberration test [4]: positive; Result in UDS assay (liver): negative results; Cytotoxicity (RINC) in words [5, 15]: could not be tested at higher concentrations due to cytotoxicity; also recorded: too cytotoxic to test at higher concentrations; Result for micronucleus [6]: positive; Genotoxicity result in vivo ([7]; data limited, mainly hematopoietic tissues, ref Kirkland et al., 2016): negative results in vivo; Result in in vivo MutaMouse assay (MutaMouse; liver, ref Rompelberg et al., 1996a, Rompelberg et al., 1996b): negative results
5 | CC1(C)S[C@@H]2[C@H](NC(=O)[C@H](N)c3ccccc3)C(=O)N2[C@H]1C(=O)O [Ampicillin trihydrate] | Negative | – | – | – | – | – | – | – | – | – | –
6 | COc1ccc2nc3cc(Cl)ccc3c(NCCCNCCCl)c2c1.Cl.Cl [ICR 191, 6‐chloro‐9‐[3‐(2‐chloroethylamino)propylamino]‐2‐methoxyacridine dihydrochloride] | negative result | – | – | – | – | – | – | – | – | – | Significant MF increase over concurrent vehicle control at any concentration [1]: did not yield a significant increase in MF; Overall treatment effect on MF (Chi-squared test) [1]: nor was a significant treatment effect detected
7 | Cn1c(N)nc2ncc(-c3ccccc3)cc21 [PhIP, 2‐amino‐1‐methyl‐6‐phenylimidazo[4,5‐b]pyridine] | positive responses | 2.6 | 2.6 | 1.05 | 1.05 | 3.7 | less potent than 3‐NBA and BaP | 7.8 | 7.05 | Positive (+S9) | MF fold-increase over control ([1]; 10 μg/mL, 6 h exposure, 72 h sampling): 3.7 fold; MF fold increase in MutaMouse FE1 cells [2, 14]: ~ 5.5 fold
8 | O=C1c2ccccc2-c2ccc([N+](=O)[O-])c3cccc1c23 [3‐NBA, 3‐nitrobenzanthrone] | positive results; also recorded: positive responses | 0.15 | 0.15 | 0.0689 | 0.0689 | 3.6 | most potent | 0.373 | 0.363 | Positive (±S9) | MF fold-increase over control ([1]; 0.5 μg/mL, 6 h exposure, 72 h sampling): 8.2 fold; MF fold increase above solvent control in MutaMouse FE1 cells ([2]; ref Arlt et al., 2008): ~ five; Cytotoxicity (RINC) in words [5, 15]: sharp increase in cytotoxicity
9 | aflatoxin B1 [AFB1] | – | – | – | – | – | – | – | – | – | – | BMD100, Exponential model [1]: 0.47 µg/mL; BMD100, Hill model [1]: 0.47 µg/mL; BMDL, Exponential model [1]: 0.193 µg/mL; BMDL, Hill model [1]: 0.193 µg/mL; BMDU, Exponential model [1]: 1.47 µg/mL; BMDU, Hill model [1]: 1.47 µg/mL; MF fold increase over control in MutaMouse PHs [1]: 3.6 fold; MF fold-increase over control [1]: 3.6 fold and 2.5 fold; Relative mutagenic potency by BMD100 covariate analysis [1]: most potent; Response in MutaMouse PH gene mutation assay [1]: positive responses; MF fold increase in MutaMouse FE1 cells [2]: ~ three; Response in MutaMouse FE1 gene mutation assay [2]: Positive (±S9); RINC [5]: 0.6 and 0.3
10 | CCN(N=O)C(N)=O [ENU, N‐ethyl‐N‐nitrosourea] | Positive | 76 | 76 | 36.6 | 36.6 | 4.2 | – | 178 | 170 | Positive (−S9) | MF fold-increase over control ([1]; 1,000 μg/mL, 6 h exposure, 72 h sampling): 4.2 fold; MF fold increase in MutaMouse FE1 cells ([2]; ref White et al., 2003): ~ 6 fold; MF fold increase in pUR288 lacZ plasmid mouse PHs ([8]; ref Luijten et al., 2016): ~ 4 fold; Response in pUR288 lacZ Plasmid Mouse PHs gene mutation assay [8]: Positive; Relative potency in the MutaMouse gene mutation assay in vivo (MutaMouse; liver and bone marrow): more potent than BaP; Relative potency in the MutaMouse gene mutation assay in vivo (MutaMouse; small intestine, versus BaP): of equivalent potency
11 | OC[C@@H](O)[C@@H](O)[C@H](O)[C@H](O)CO [D‐Mannitol] | Negative | – | – | – | – | – | – | – | – | Negative (−S9) | Response in MLA (tk locus): Negative (±S9); Response in pUR288 lacZ Plasmid Mouse PHs gene mutation assay [8]: Negative
